Test: pharmacokinetics of cocaine in plasma after i.v. cocaine HCl
Format: in vivo
Conditions: 2-compartment model, no antibody, i.v. cocaine HCl 0.56 mg/kg
Procedure: The monoclonal antibodies, variants and/or derivatives of the present invention use their binding affinity for cocaine and its derivatives to reduce the concentration of cocaine or its derivatives in the brain. Infused antibodies, variants and/or derivatives also produce a dramatic dose-dependent increase in plasma cocaine concentrations and a concomitant decrease in the brain cocaine concentrations produced by an i.v. injection of cocaine HCI (0.56 mg/kg). […] The anti-cocaine antibodies, variants and/or derivatives of the invention increase the area under the plasma cocaine concentration-time curve (AUC) relative to the AUC in the absence of the anti-cocaine antibodies of the invention. The antibodies, variants and/or derivatives of the present invention decrease cocaine's volume of distribution (l/kg). However, cocaine is still rapidly cleared from plasma and its elimination is described by a single compartment model. The antibodies, variants and/or derivatives also produce a decrease in the cocaine AUC in the brain. Therefore, the effect of the antibodies on plasma and brain cocaine concentrations is predominantly due to a change in the distribution of cocaine with negligible effects on its rate of clearance.

## COC(=O)[C@H]1[C@@H](OC(=O)c2ccccc2)C[C@@H]2CC[C@H]1N2C [cocaine]
  distribution t1/2α: 1.9 min
  terminal elimination t1/2β: 26.1 min
